Target: T1, hCA I (Homo sapiens, UniProt P00915)
T1 construct: gene CA1; recombinant, obtained in house as reported earlier; cytosolic isoform
Experiment: stopped-flow CO2 hydrase assay
Type: biochemical
Conditions: […] Hepes pH […] Na2SO4, CO2 […], […] min pre-incubation at room temperature

T1 sequence (P00915 2-261): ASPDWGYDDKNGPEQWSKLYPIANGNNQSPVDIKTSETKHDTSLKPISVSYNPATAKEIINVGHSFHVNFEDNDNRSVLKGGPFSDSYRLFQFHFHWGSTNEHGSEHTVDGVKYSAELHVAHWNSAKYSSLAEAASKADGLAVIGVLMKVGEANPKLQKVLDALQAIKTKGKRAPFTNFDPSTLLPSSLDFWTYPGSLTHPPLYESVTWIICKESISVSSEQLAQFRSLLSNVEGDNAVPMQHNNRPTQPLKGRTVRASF

- Ki: 6430 nM
Compound: Cc1ncc([N+](=O)[O-])n1CCS(N)(=O)=O [compound 10, 2-(2-Methyl-5-nitro-1H-imidazol-1-yl)ethane-1-sulphonamide]
